According to PubChem BioAssay (NCI):
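These data come from cells grown in 96-well plates and exposed to compound for 48 hours at five concentrations. Abbreviation: GI50, concentration required for 50% inhibition of growth. TGI: concentration producing complete growth inhibition.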

What was measured:
Test in all cases: NCI tumour cell line growth inhibition, 48 h
SN12C renal = test system: SN12C renal
UACC-257 melanoma = test system: UACC-257 melanoma
NCI/ADR-RES ovarian = test system: NCI/ADR-RES ovarian
MALME-3M melanoma = test system: MALME-3M melanoma
HL-60(TB) leukemia = test system: HL-60(TB) leukemia
MCF7 breast = test system: MCF7 breast
DU-145 prostate = test system: DU-145 prostate
IGROV1 ovarian = test system: IGROV1 ovarian
HOP-62 NSCLC = test system: HOP-62 NSCLC
HOP-92 NSCLC = test system: HOP-92 NSCLC
SNB-19 CNS = test system: SNB-19 CNS
M14 melanoma = test system: M14 melanoma
A549 NSCLC = test system: A549 NSCLC
HT29 colon = test system: HT29 colon
RPMI-8226 leukemia = test system: RPMI-8226 leukemia
SR leukemia = test system: SR leukemia
786-0 renal = test system: 786-0 renal
A498 renal = test system: A498 renal
NCI-H23 lung = test system: NCI-H23 lung
NCI-H460 lung = test system: NCI-H460 lung
RXF 393 renal = test system: RXF 393 renal
K-562 leukemia = test system: K-562 leukemia
SW-620 colon = test system: SW-620 colon
T-47D breast = test system: T-47D breast
MDA-MB-435 = test system: MDA-MB-435
U251 CNS = test system: U251 CNS
TK-10 renal = test system: TK-10 renal
PC-3 prostate = test system: PC-3 prostate
EKVX NSCLC = test system: EKVX NSCLC
NCI-H522 lung = test system: NCI-H522 lung

Structure (SMILES): COc1ccc(CN2[C@@H](C(=O)NCc3ccc(C(=O)NO)cc3)Cc3c([nH]c4ccccc34)[C@@H]2C2CC2)cc1
- GI50 (SN12C renal): 3.86 µM
- TGI (SN12C renal): 13.4 µM
- GI50 (UACC-257 melanoma): 2390 nM
- TGI (UACC-257 melanoma): 9.74 µM
- GI50 (NCI/ADR-RES ovarian): 4.05 µM
- TGI (NCI/ADR-RES ovarian): 13.8 µM
- GI50 (MALME-3M melanoma): 847 nM
- TGI (MALME-3M melanoma): 4.17 µM
- GI50 (HL-60(TB) leukemia): 2730 nM
- TGI (HL-60(TB) leukemia): > 19.8 µM
- GI50 (MCF7 breast): 2330 nM
- TGI (MCF7 breast): 12 µM
- GI50 (DU-145 prostate): 4.38 µM
- TGI (DU-145 prostate): > 19.8 µM
- GI50 (IGROV1 ovarian): 2600 nM
- TGI (IGROV1 ovarian): 5.78 µM
- GI50 (HOP-62 NSCLC): 3.48 µM
- TGI (HOP-62 NSCLC): 8.58 µM
- GI50 (HOP-92 NSCLC): 2620 nM
- TGI (HOP-92 NSCLC): 6.65 µM
- GI50 (SNB-19 CNS): 2890 nM
- TGI (SNB-19 CNS): 6.8 µM
- GI50 (M14 melanoma): 4.07 µM
- TGI (M14 melanoma): > 19.8 µM
- GI50 (A549 NSCLC): 3.54 µM
- TGI (A549 NSCLC): 9.02 µM
- GI50 (HT29 colon): 4.84 µM
- TGI (HT29 colon): > 19.8 µM
- GI50 (RPMI-8226 leukemia): 2920 nM
- TGI (RPMI-8226 leukemia): > 19.8 µM
- GI50 (SR leukemia): > 19.8 µM
- TGI (SR leukemia): > 19.8 µM
- GI50 (786-0 renal): 3.98 µM
- TGI (786-0 renal): 13 µM
- GI50 (A498 renal): 2770 nM
- TGI (A498 renal): 7.99 µM
- GI50 (NCI-H23 lung): 2750 nM
- TGI (NCI-H23 lung): 5.77 µM
- GI50 (NCI-H460 lung): 3.14 µM
- TGI (NCI-H460 lung): 9.21 µM
- GI50 (RXF 393 renal): 797 nM
- TGI (RXF 393 renal): 4.09 µM
- GI50 (K-562 leukemia): 1670 nM
- TGI (K-562 leukemia): > 19.8 µM
- GI50 (SW-620 colon): 2260 nM
- TGI (SW-620 colon): 8.03 µM
- GI50 (T-47D breast): 3.82 µM
- TGI (T-47D breast): 12.6 µM
- GI50 (MDA-MB-435): 638 nM
- TGI (MDA-MB-435): 2670 nM
- GI50 (U251 CNS): 2670 nM
- TGI (U251 CNS): 6.78 µM
- GI50 (TK-10 renal): 3.17 µM
- TGI (TK-10 renal): 10.1 µM
- GI50 (PC-3 prostate): 3.12 µM
- TGI (PC-3 prostate): > 19.8 µM
- GI50 (EKVX NSCLC): 3.2 µM
- TGI (EKVX NSCLC): 10.9 µM
- GI50 (NCI-H522 lung): 964 nM
